Source: patent US9839701B2, “Aromatic amino acid derivative and positron emission topography (PET) probe using the same” (OSAKA UNIVERSITY, priority 2013, dated 2017)

Legend:
human LAT1 = biological target: T1, human LAT1 (Homo sapiens, UniProt Q01650); test: Inhibition of amino acid uptake in human LAT1 stably expressing cell line; assay type: cell-based
T1 construct: expressed in transfected cells
From the text: (§1) A human LAT1 expression vector or a human LAT2 expression vector was transfected using Lipofectamine (registered trademark) 2000 (Invitrogen) into a human embryonic kidney cell line HEK293. G418-resistant HEK293 clones were selected, and among them, a clone showing human LAT1-specific amino acid uptake and a clone showing human LAT2-specific amino acid uptake were selected and established as a human LAT1 stably expressing cell line and a human LAT2 stably expressing cell line, respectively (Khunweeraphong et al. J Pharmacol Sci. 2012 Aug. 18; 119(4): 368-80. Epub 2012 Jul. 31).
(§2) The human LAT1 stably expressing cell line and the human LAT2 stably expressing cell line were seeded at 1.2×10^5 cells/well on separate collagen-coated 24-well plates, and after 48 hours, the cells were washed 3 times with an uptake buffer (Na^2+-free Hank's balanced salt solution (HBSS), pH 7.4) prewarmed at 37° C. Compound 10a, compound 10b or a positive control FAMT (fluoro-α-methyltyrosine) was added at 100 μM, and incubation was performed at 37° C. for 3 minutes. Cells not treated with any of these compounds were used as a negative control. After the incubation, 1 μM of [^14C]L-leucine or [^14C]alanine was added to the wells, [^14C]L-leucine or [^14C]alanine uptake was allowed to proceed for 1 minute, and the cells were washed 3 times with an ice-cold uptake buffer. Subsequently, 500 μL of 0.1 M NaOH was added to each well for cell lysis, 20 μL of the lysate was used for the measurement of the protein concentration, and the remaining lysate was used for the measurement of the intracellular radioactivity. The measured radioactivity was normalized to the protein concentration, and on the assumption that the amino acid uptake activity in the negative control was 100%, the percentage (%) of inhibition of amino acid uptake in the presence of each compound was calculated.
(§3) Using the same cell lines as described in Example 2, the compound of Example 1 was examined for the inhibitory effect on leucine or alanine uptake in the human LAT1 stably expressing cell line and the human LAT2 stably expressing cell line in the same manner as in Example 2. FAMT was used as the positive control. The compound of Example 1 or FAMT was added at 100 μM. Cells not treated with either of these compounds were used as a negative control. On the assumption that the amino acid uptake activity in the negative control (control) was 100%, the percentage (%) of inhibition of amino acid uptake in the presence of FAMT or the compound of Example 1 was calculated. In addition, the cancer cell selectivity was calculated as the ratio of the amino acid uptake activity in the human LAT2 stably expressing cell line relative to that in the human LAT1 stably expressing cell line.
(§4) In another experiment, the cells were treated with the compound of Example 1 at eight different concentrations (0.1, 1, 3, 10, 30, 100, 300 and 1000 μM), and the concentration causing 50% inhibition of amino acid uptake was calculated as the IC50 value.
(§5) A human LAT1 stably expressing cell line and a human LAT2 stably expressing cell line, each of which was the same as described in Example 2, were seeded at 1.2×10^5 cells/well, and after 48 hours, the cells were washed 3 times with an uptake buffer (Na^2+-free Hank's balanced salt solution (HBSS), pH 7.4) prewarmed at 37° C. The test compounds, L-tyrosine or the positive control FAMT (fluoro-α-methyltyrosine) was added at 30 μM, and incubation was performed at 37° C. for 3 minutes. Cells not treated with any of these compounds were used as a negative control. After the incubation, 1 μM of [^14C]L-leucine or [^14C]alanine was added to the wells, [^14C]L-leucine or [^14C]alanine uptake was allowed to proceed for 1 minute, and the cells were washed 3 times with an ice-cold uptake buffer. […]

human LAT2 = biological target: T2, human LAT2 (Homo sapiens, UniProt Q9UHI5); test: Inhibition of amino acid uptake in human LAT2 stably expressing cell line; assay type: cell-based; conditions: human LAT2 stably expressing HEK293 cell line; for inhibition at 30 µM: HEK293, compound at 30 μM, read-out: Percentage of inhibition of LAT2-mediated amino acid uptake
T2 construct: expressed in transfected cells
T2 sequence (Q9UHI5 1-535): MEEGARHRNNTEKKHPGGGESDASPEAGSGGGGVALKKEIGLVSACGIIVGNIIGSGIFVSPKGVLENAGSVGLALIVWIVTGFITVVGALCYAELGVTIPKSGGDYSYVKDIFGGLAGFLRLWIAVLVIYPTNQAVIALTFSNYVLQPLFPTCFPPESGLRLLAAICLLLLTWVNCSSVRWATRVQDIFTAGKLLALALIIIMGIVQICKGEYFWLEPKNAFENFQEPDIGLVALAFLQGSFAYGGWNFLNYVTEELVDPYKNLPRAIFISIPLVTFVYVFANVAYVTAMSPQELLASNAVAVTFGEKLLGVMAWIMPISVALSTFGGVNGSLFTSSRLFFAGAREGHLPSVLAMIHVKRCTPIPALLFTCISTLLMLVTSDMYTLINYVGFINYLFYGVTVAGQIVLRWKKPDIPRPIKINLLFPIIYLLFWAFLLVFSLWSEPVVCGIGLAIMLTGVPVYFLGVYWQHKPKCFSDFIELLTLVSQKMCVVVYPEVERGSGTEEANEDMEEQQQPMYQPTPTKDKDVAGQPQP
T2 sequence (P08195 1-529 partner): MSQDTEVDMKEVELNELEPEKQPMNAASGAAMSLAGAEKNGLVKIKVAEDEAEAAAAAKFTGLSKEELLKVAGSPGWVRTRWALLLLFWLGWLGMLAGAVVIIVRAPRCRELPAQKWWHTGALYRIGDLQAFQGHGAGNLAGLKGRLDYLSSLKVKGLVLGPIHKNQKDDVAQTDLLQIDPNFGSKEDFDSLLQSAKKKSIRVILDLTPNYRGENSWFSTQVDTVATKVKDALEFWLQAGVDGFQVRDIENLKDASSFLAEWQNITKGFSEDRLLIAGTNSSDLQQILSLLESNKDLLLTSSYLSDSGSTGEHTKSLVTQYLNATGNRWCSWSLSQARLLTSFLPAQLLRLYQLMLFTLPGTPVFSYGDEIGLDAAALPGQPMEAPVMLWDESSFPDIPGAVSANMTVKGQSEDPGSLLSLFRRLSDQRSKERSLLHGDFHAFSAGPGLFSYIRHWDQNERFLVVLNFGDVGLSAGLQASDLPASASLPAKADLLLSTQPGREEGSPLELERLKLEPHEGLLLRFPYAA
From the text: as §1, §2, §3, §4, §5

[1] = compound at 30 μM, human LAT1 stably expressing HEK293 cell line, 30 µM

T1 sequence (Q01650 whole entry, one chain of several): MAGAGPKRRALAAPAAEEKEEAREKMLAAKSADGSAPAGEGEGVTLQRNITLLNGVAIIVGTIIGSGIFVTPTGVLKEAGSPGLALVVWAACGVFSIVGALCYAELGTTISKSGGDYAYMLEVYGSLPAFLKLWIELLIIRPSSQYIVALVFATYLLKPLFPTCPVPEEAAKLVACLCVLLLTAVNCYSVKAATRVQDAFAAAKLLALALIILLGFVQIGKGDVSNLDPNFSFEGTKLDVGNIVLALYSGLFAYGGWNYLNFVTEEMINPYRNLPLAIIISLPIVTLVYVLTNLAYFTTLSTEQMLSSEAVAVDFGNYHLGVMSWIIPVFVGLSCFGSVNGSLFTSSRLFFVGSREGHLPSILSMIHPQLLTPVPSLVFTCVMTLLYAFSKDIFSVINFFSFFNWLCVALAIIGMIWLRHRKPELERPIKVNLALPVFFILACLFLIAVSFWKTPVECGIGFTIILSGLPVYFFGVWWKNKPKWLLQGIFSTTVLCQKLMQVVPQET

Compound | Cancer cell selectivity (amino acid uptake activity in human LAT2 line / in human LAT1 line) (human LAT1; compound at 30 μM) | Percentage of inhibition of LAT1-mediated amino acid uptake (human LAT1; [1]) [%] | Percentage of inhibition of LAT2-mediated amino acid uptake (human LAT2; compound at 30 μM, 30 µM) [%] | also measured
NC(Cc1cc(OCCF)ccc1I)C(=O)O (single isomer, unassigned) [compound 10a, 2-amino-3-(5-(2-fluoroethoxy)-2-iodophenyl)propanoic acid] | 1.44 | 33.8 | 4.7 | Cancer cell selectivity (amino acid uptake activity in human LAT2 line / in human LAT1 line) (human LAT1; compound at 100 μM): higher than that in the human LAT2 stably expressing cell line
NC(Cc1cc(OCCF)ccc1I)C(=O)O (single isomer, unassigned) [compound 10b, 2-amino-3-(5-(2-fluoroethoxy)-2-iodophenyl)propanoic acid] | 8.59 | 91.2 | 24.5 | Cancer cell selectivity (amino acid uptake activity in human LAT2 line / in human LAT1 line) (human LAT1; compound at 100 μM): higher than that in the human LAT2 stably expressing cell line
NC(Cc1cc(OCCCCF)ccc1I)C(=O)O (single isomer, unassigned) [compound 25a, 2-amino-3-(5-(4-fluorobutoxy)-2-iodophenyl)propanoic acid] | 1.49 | 37.7 | – | inhibition at 30 µM (human LAT2): 7.3%
NC(Cc1cc(OCCCCF)ccc1I)C(=O)O (single isomer, unassigned) [compound 25b, 2-amino-3-(5-(4-fluorobutoxy)-2-iodophenyl)propanoic acid] | 15.13 | 94.1 | 11.3 | –
NC(Cc1cc(OCCOCCF)ccc1I)C(=O)O (single isomer, unassigned) [compound 27 (R), 2-amino-3-(5-(2-(2-fluoroethoxy)ethoxy)-2-iodophenyl)propanoic acid] | 1.39 | 35.4 | – | inhibition at 30 µM (human LAT2): 10.6%
NC(Cc1cc(OCCOCCF)ccc1I)C(=O)O (single isomer, unassigned) [compound 27 (S), 2-amino-3-(5-(2-(2-fluoroethoxy)ethoxy)-2-iodophenyl)propanoic acid] | 9.04 | 89.5 | 6.5 | –
N[C@@H](Cc1ccc(O)cc1)C(=O)O [L-Tyr, L-tyrosine, reference compound] | 1.16 | – | – | inhibition at 30 µM (human LAT1; HEK293, compound at 30 μM, human LAT1 stably expressing HEK293 cell line, read-out: Percentage of inhibition of LAT1-mediated amino acid uptake): 42.3%; inhibition at 30 µM (human LAT2): 33.1%
fluoro-α-methyltyrosine [FAMT, reference compound] | 1.5 | – | – | Percentage of inhibition of LAT1-mediated amino acid uptake (human LAT1; compound at 30 μM, human LAT1 stably expressing HEK293 cell line): 44.2%; Percentage of inhibition of LAT1-mediated amino acid uptake (human LAT1; compound at 100 μM, human LAT1 stably expressing HEK293 cell line, 1 μM [14C]L-leucine or [14C]alanine, 1 min uptake): 52.4%; Percentage of inhibition of LAT2-mediated amino acid uptake (human LAT2; compound at 30 μM): 16.3%; Percentage of inhibition of LAT2-mediated amino acid uptake (human LAT2; compound at 100 μM, 1 μM [14C]L-leucine or [14C]alanine, 1 min uptake): 28.3%

The next lines start with results.

Cancer cell selectivity (amino acid uptake activity in human LAT2 line / in human LAT1 line) (human LAT1; compound at 30 μM) | Percentage of inhibition of LAT1-mediated amino acid uptake (human LAT1; [1]) [%] | Percentage of inhibition of LAT2-mediated amino acid uptake (human LAT2; compound at 30 μM, 30 µM) [%] | Compound | also measured
1.41 | 37.5 | 11.8 | NC(Cc1cc(OCCF)ccc1C1CC1)C(=O)O (single isomer, unassigned) [compound 23a, 2-amino-3-(2-cyclopropyl-5-(2-fluoroethoxy)phenyl)propanoic acid] | –
11.2 | 94.5 | 39.9 | NC(Cc1cc(OCCF)ccc1C1CC1)C(=O)O (single isomer, unassigned) [compound 23b, 2-amino-3-(2-cyclopropyl-5-(2-fluoroethoxy)phenyl)propanoic acid] | –
1.12 | 11.6 | 0.8 | NC(Cc1cc(OCCF)ccc1Br)C(=O)O (single isomer, unassigned) [compound 24a, 2-amino-3-(2-bromo-5-(2-fluoroethoxy)phenyl)propanoic acid] | –
4.42 | 85.1 | 34.3 | NC(Cc1cc(OCCF)ccc1Br)C(=O)O (single isomer, unassigned) [compound 24b, 2-amino-3-(2-bromo-5-(2-fluoroethoxy)phenyl)propanoic acid] | –
